# pIC50: −log10 of the molar value. “And” between values parts separate entries of the source, which are not always exact repeats. Equal values may be shown once.
# System: 171881-019-R-J1-PDC complex spheroid growth, % test/control
# Experiment: Anticancer human tumor 171881-019-R-J1-PDC patient-derived invasive breast carcinoma cell line growth inhibition [Asc]
# Details: for viability, T/C: stronger effect = lower value
# Method: Multicellular complex tumor spheroid response to apoptosis pathway targeting inhibitors Alrizomadlin, Pelcitoclax, and Dasminapant in combination with a variety of drugs and investigational agents in selected tumor cell lines
# The MDM2 inhibitor alrizomadlin, the Bcl-2/Bcl-xL inhibitor pelcitoclax, and the IAPs inhibitor dasminapant were evaluated both individually and in combination with standard of care and investigational anticancer small molecules within a complex spheroid model of solid tumors. . Complex spheroids include a stromal component modeled by human endothelial cells (HUVEC) and fibroblasts modeled by human mesenchymal stem cells (MSCs). The concentration ranges selected for each drug and investigational agent were based upon clinically achievable concentrations if the clinical Cmax of the agent was known.
# Compounds. The drugs and investigational agents: alrizomadlin (APG-115; NSC831270), pelcitoclax (APG-1252; NSC835773), dasminapant (APG-1387;NSC834197), TAK-243 (NSC785004), copanlisib (NSC809693), olaparib (NSC753686), talazoparib (NSC767125), cobimetinib (NSC 768068), eltanexor (KPT-8602, NSC 794443), abemaciclib (NSC 768073), sotorasib (NSC818433), adagrasib (NSC 831453), MRTX-1133 (NSC 836407), Iadademestat (ORY1001, NSC 806812), and RMC-4630 (NSC839698), were obtained from the NCI Developmental Therapeutics Program Chemical Repository. The FDA-approved anticancer drug set is available from the Developmental Therapeutics Program at https://dtp.cancer.gov/organization/dscb/obtaining/available plates.htm. […] The stock solutions were prepared in dimethyl sulfoxide (DMSO, Sigma-Aldrich, St. Louis, MO, cat. D2650) at 800-fold the tested concentration and stored at -70 degrees C prior to their use. All drugs and investigational agents were tested over a range starting from a high concentration at or near the clinical Cmax and decreasing in half-log increments. If the clinical Cmax for an agent had not been determined, the highest concentration tested was 10 microM.
# The patient-derived cancer (PDC) cell lines include five colon adenocarcinomas: 186277-243-T-J2-PDC, 616215-338-R-J1-PDC, 439559-082-T-J2-PDC, 463943-066-T-J2-PDC, and 519858-162-T-J1-PDC; three pancreatic carcinomas: 323965-272-R-J2-PDC, 521955-158-R6-J3-PDC, and 521955-158-R2-J5-PDC; two uterine sarcomas: 327498-152-R-J2-PDC and 993429-296-R-J1-PDC; two rhabdomyosarcomas: 755483-174-R-J1-PDC and 772245-204-R-J1-PDC; two soft tissue sarcomas: 126254-015-R-J1-PDC and 494315-158-R-J1-PDC; two malignant fibrous histiocytomas: 317291-083-R-J1-PDC and 596521-263-R-J1-PDC; two breast carcinomas: 171881-019-R-J1-PDC and 885512-296-R-J2-PDC; and one ovarian carcinoma: 6556581-035-R-J-PDC were obtained from the NCI PDMR, (https://pdmr.cancer.gov). The established cell lines HSSY-2 synovial sarcoma (RRID:CVCL 8719), SYO-1 synovial sarcoma (RRID:CVCL_7146), MPNST malignant peripheral neural sheath tumor were obtained from the Sloan Kettering Institute. The following established cell lines were purchased from the American Type Culture Collection (ATCC, Manassas, VA), Sor the received from the NCI repository:, PANC-1 pancreatic carcinoma (CRL-1469, RRID:CVCL_0480), OVCAR-5 ovarian carcinoma (RRID:CVCL_1628), OVCAR-8 ovarian carcinoma (RRID:CVCL_1629), , MCF-7 breast carcinoma (CRL-12584, RRID:CVCL_0031), MDA-MB-231 breast carcinoma (CRL-12532, RRID:CVCL_0062), NCI-H1876 small cell lung carcinoma (CRL-5902, RRID:CVCL_1503), NCI-H510A small cell lung carcinoma (HTB-184, RRID:CVCL_1565), NCI-H1417 (CRL-5869, RRID:CVCL_1469), and NCI-H196 small cell lung carcinoma (CRL-5823, RRID:CVCL_1509). Dr. Peter Houghton (Greehey Children's Cancer Research Institute, University of Texas Health Science Center, San Antonio, TX) provided Rh-18 rhabdomyosarcoma (RRID:CVCL_1659). Pooled donor human umbilical vein endothelial cells (HUVEC, Lonza, cat. CC-2519) and human mesenchymal stem cells (hMSC, Lonza, cat. PT-2501) were purchased from Lonza (Walkersville, MD).
# Cell Culture. […]
# 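Wherever viability, T/C is given: spheroids exposed to compounds for 7 days.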
smiles,measurement,setting,value
NC(=O)C(=Cn1cnc(-c2cc(C(F)(F)F)cc(C(F)(F)F)c2)n1)c1cncnc1 + CCN1C(C(=O)NC23CCC(C(=O)O)(CC2)CC3)C(c2cccc(Cl)c2F)C2(C(=O)Nc3cc(Cl)ccc32)C12CCCCC2,pIC50,"curve of first compound, second compound 0.03 µM",7.46
same,pIC50,"curve of first compound, second compound 0.0949 µM",7.53
same,pIC50,"curve of first compound, second compound 0.3 µM",7.43
same,pIC50,"curve of first compound, second compound 0.949 µM",7.42
same,pIC50,"curve of first compound, second compound 3 µM",7.53
same,"viability, T/C","second compound 0.03 µM, first compound 0.000949 µM",116%
same,"viability, T/C","second compound 0.03 µM, first compound 0.003 µM",103%
same,"viability, T/C","second compound 0.03 µM, first compound 0.00949 µM",93.8%
same,"viability, T/C","second compound 0.03 µM, first compound 0.03 µM",57.9%
same,"viability, T/C","second compound 0.03 µM, first compound 0.0949 µM",9.64%
same,"viability, T/C","second compound 0.03 µM, first compound 0.3 µM",3.28%
same,"viability, T/C","second compound 0.0949 µM, first compound 0.000949 µM",139%
same,"viability, T/C","second compound 0.0949 µM, first compound 0.003 µM",101%
same,"viability, T/C","second compound 0.0949 µM, first compound 0.00949 µM",100%
same,"viability, T/C","second compound 0.0949 µM, first compound 0.03 µM",48.6%
same,"viability, T/C","second compound 0.0949 µM, first compound 0.0949 µM",10.1%
same,"viability, T/C","second compound 0.0949 µM, first compound 0.3 µM",3.82%
same,"viability, T/C","second compound 0.3 µM, first compound 0.000949 µM",121%
same,"viability, T/C","second compound 0.3 µM, first compound 0.003 µM",118%
same,"viability, T/C","second compound 0.3 µM, first compound 0.00949 µM",108%
same,"viability, T/C","second compound 0.3 µM, first compound 0.03 µM",60.3%
same,"viability, T/C","second compound 0.3 µM, first compound 0.0949 µM",8.36%
same,"viability, T/C","second compound 0.3 µM, first compound 0.3 µM",2.76%
same,"viability, T/C","second compound 0.949 µM, first compound 0.000949 µM",126%
same,"viability, T/C","second compound 0.949 µM, first compound 0.003 µM",115%
same,"viability, T/C","second compound 0.949 µM, first compound 0.00949 µM",114%
same,"viability, T/C","second compound 0.949 µM, first compound 0.03 µM",61%
same,"viability, T/C","second compound 0.949 µM, first compound 0.0949 µM",8.13%
same,"viability, T/C","second compound 0.949 µM, first compound 0.3 µM",0.97%
same,"viability, T/C","second compound 3 µM, first compound 0.000949 µM",111%
same,"viability, T/C","second compound 3 µM, first compound 0.003 µM",117%
same,"viability, T/C","second compound 3 µM, first compound 0.00949 µM",105%
same,"viability, T/C","second compound 3 µM, first compound 0.03 µM",48.8%
same,"viability, T/C","second compound 3 µM, first compound 0.0949 µM",6.01%
same,"viability, T/C","second compound 3 µM, first compound 0.3 µM",1.16%
CCN1CCN(Cc2ccc(Nc3ncc(F)c(-c4cc(F)c5nc(C)n(C(C)C)c5c4)n3)nc2)CC1 + Cc1c(S(C)(=O)=O)c(-c2cc(F)cc(N3CCN(c4ccc(NS(=O)(=O)c5ccc(NC(CCN6CCC(C(=O)OCCCP(=O)(O)O)CC6)CSc6ccccc6)c(S(=O)(=O)C(F)(F)F)c5)cc4)CC3)c2)c(-c2ccc(Cl)cc2)n1C(C)C,pIC50,"curve of first compound, second compound 0.1 µM",< 6.00
same,pIC50,"curve of first compound, second compound 0.316 µM",< 6.00
same,pIC50,"curve of first compound, second compound 1 µM",< 6.00
same,pIC50,"curve of first compound, second compound 3.16 µM",< 6.00
same,pIC50,"curve of first compound, second compound 10 µM",< 6.00
same,"viability, T/C","second compound 0.1 µM, first compound 0.00316 µM",105%
same,"viability, T/C","second compound 0.1 µM, first compound 0.01 µM",118%
same,"viability, T/C","second compound 0.1 µM, first compound 0.0316 µM",119%
same,"viability, T/C","second compound 0.1 µM, first compound 0.1 µM",111%
same,"viability, T/C","second compound 0.1 µM, first compound 0.316 µM",118%
same,"viability, T/C","second compound 0.1 µM, first compound 1 µM",146%
same,"viability, T/C","second compound 0.316 µM, first compound 0.00316 µM",142%
same,"viability, T/C","second compound 0.316 µM, first compound 0.01 µM",145%
same,"viability, T/C","second compound 0.316 µM, first compound 0.0316 µM",149%
same,"viability, T/C","second compound 0.316 µM, first compound 0.1 µM",139%
same,"viability, T/C","second compound 0.316 µM, first compound 0.316 µM",178%
same,"viability, T/C","second compound 0.316 µM, first compound 1 µM",188%
same,"viability, T/C","second compound 1 µM, first compound 0.00316 µM",125%
same,"viability, T/C","second compound 1 µM, first compound 0.01 µM",149%
same,"viability, T/C","second compound 1 µM, first compound 0.0316 µM",157%
same,"viability, T/C","second compound 1 µM, first compound 0.1 µM",172%
same,"viability, T/C","second compound 1 µM, first compound 0.316 µM",188%
same,"viability, T/C","second compound 1 µM, first compound 1 µM",200%
same,"viability, T/C","second compound 3.16 µM, first compound 0.00316 µM",191%
same,"viability, T/C","second compound 3.16 µM, first compound 0.01 µM",190%
same,"viability, T/C","second compound 3.16 µM, first compound 0.0316 µM",189%
same,"viability, T/C","second compound 3.16 µM, first compound 0.1 µM",184%
same,"viability, T/C","second compound 3.16 µM, first compound 0.316 µM",188%
same,"viability, T/C","second compound 3.16 µM, first compound 1 µM",185%
same,"viability, T/C","second compound 10 µM, first compound 0.00316 µM",199%
same,"viability, T/C","second compound 10 µM, first compound 0.01 µM",215%
same,"viability, T/C","second compound 10 µM, first compound 0.0316 µM",213%
same,"viability, T/C","second compound 10 µM, first compound 0.1 µM",192%
same,"viability, T/C","second compound 10 µM, first compound 0.316 µM",187%
same,"viability, T/C","second compound 10 µM, first compound 1 µM",166%
C=CC(=O)N1CCN(c2nc(=O)n(-c3c(C)ccnc3C(C)C)c3nc(-c4c(O)cccc4F)c(F)cc23)C(C)C1 (configuration not stated),"viability, T/C",compound 0.0316 µM,94.2% and 93.7% and 99.4%
same,"viability, T/C",compound 0.1 µM,95.4% and 109% and 106%
same,"viability, T/C",compound 0.316 µM,90.9% and 107% and 99.9%
same,"viability, T/C",compound 1 µM,89.2% and 92.1% and 88.4%
same,"viability, T/C",compound 3.16 µM,80.5% and 93.2% and 83.7%
same,"viability, T/C",compound 10 µM,71.1% and 78.1% and 83.2%
same,pIC50,curve of compound,< 5.00

# Reference: PubChem BioAssay AID1963428 (Molecular Pharmacology Branch, DTP, NCI, 2024)
